We go through 23 compounds from patent US11066416B2, “Rapafucin derivative compounds and methods of use thereof” (The Johns Hopkins University, priority 2016, dated 2021).

A value given as a limit tells only on which side of the number the result lay.

As usually defined, the IC50 is the concentration at which inhibition is half-maximal. A lower IC50 goes with inhibition by little substance.

Holding throughout (type): cell-based
For assay [1], the system named is specific cell lines indicated in each assay. The assay is described as follows: Cell proliferation assay (Prolif.), IC50 or single concentration, cell line as indicated in each table. The following applies: A549 cells; for Prolif, A549: Table 10; for Rel. Prolif., A549: single concentration, response relative to DMSO. How it is done:
(§1) Cell Proliferation Assay (Prolif.) Guo et al. (2018) Nat. Chem. 11:254-63. Specific cell lines are indicated in each assay and cultured in complete growth media. Activity is scored according to the IC50 values relative to DMSO control. “Low” indicates an IC50 greater than 600 nM, “Medium” indicates an IC50 between 300 nM and 600 nM “High” indicates an IC50 less than 300 nM. “Rel.Uptake” refers to uptake activity characterization relative to a single concentration assay. “Low” indicates a response greater than 0.6 times the activity relative to DMSO, “Medium” indicates a response between 0.6 and 0.3 times the activity relative to DMSO, “High” indicates a response less than 0.3 times the activity relative to DMSO.

Assay [2] concerns nucleoside uptake (3H-Thymidine). Briefly: Rel.Uptake: nucleoside uptake, single concentration assay, cell line as indicated in each table. As to conditions: 293T, nucleoside uptake, response relative to DMSO. How it is done: Nucleoside Uptake Assay (uptake). Nuceloside uptake assays were performed with using 3H-Thymidine as described in Guo et al. (2018) Nat. Chem. 11:254-63. Specific cell lines are indicated in each assay and cultured in complete growth media. Activity is scored according to the IC50 values relative to DMSO control. “Low” indicates an IC50 greater than 600 nM, “Medium” indicates an IC50 between 300 nM and 600 nM “High” indicates an IC50 less than 300 nM. “Rel.Uptake” refers to uptake activity characterization relative to a single concentration assay. “Low” indicates a response greater than 0.6 times the activity relative to DMSO, “Medium” indicates a response between 0.6 and 0.3 times the activity relative to DMSO, “High” indicates a response less than 0.3 times the activity relative to DMSO.

In a further assay the test system is H929. The assay is described as follows: Cell proliferation assay (Prolif.), H929. As to conditions: for Prolif. H929: H929 cells, IC50 class relative to DMSO control; for Rel. Prolif., NCI-H929: NCI-H929 cells, single concentration, response relative to DMSO. How it is done: as §1

Consider `CCCC[C@H]1C(=O)N[C@@H](Cc2ccc3ccccc3c2)C(=O)N(C)[C@@H](COC(C)(C)C)C(=O)NCC(=O)N(C)CCC=CC(=O)OCC(C)(C)C(=O)C(=O)N2CCCC[C@H]2C(=O)O[C@H](CCc2ccc(OC)c(OC)c2)c2ccc(F)c(c2)OCC(=O)N1C` [Compound 576], for which, in assay [1], the “Prolif, A549” value is on record as “medium” and the “Rel. Prolif., A549” value was “medium”.

With `CCCC[C@H]1C(=O)N[C@@H](Cc2ccc3ccccc3c2)C(=O)N(C)[C@@H](COC(C)(C)C)C(=O)NCC(=O)N(C)CCC=CC(=O)OCC(C)(C)C(=O)C(=O)N2CCCC[C@H]2C(=O)O[C@H](CCc2ccc(OC)c(OC)c2)c2cc(F)cc(c2)OCC(=O)N1C` [Compound 574], in assay [1], the “Prolif, A549” value is recorded as “low” and the “Rel. Prolif., A549” value is reported as “low”.

Turning to `CCCC[C@H]1C(=O)N[C@@H](Cc2ccc3ccccc3c2)C(=O)N(C)[C@@H](COC(C)(C)C)C(=O)NCC(=O)N(C)CCC=CC(=O)OCC(C)(C)C(=O)C(=O)N2CCN(C)C[C@H]2C(=O)O[C@H](CCc2ccc(OC)c(OC)c2)c2cccc(c2)OCC(=O)N1C` [Compound 572], in assay [1], the “Prolif, A549” value is “medium” and the “Rel. Prolif., A549” value was “medium”.

As for `CCCC[C@H]1C(=O)N[C@@H](Cc2ccc3ccccc3c2)C(=O)N(C)[C@@H](COC(C)(C)C)C(=O)NCC(=O)N(C)CCC=CC(=O)OCC(C)(C)C(=O)C(=O)N2CCCC[C@H]2C(=O)O[C@H](CCc2ccc(OC)c(OC)c2)c2cccc(c2F)OCC(=O)N1C` [Compound 1563], in assay [2], the “Rel. Uptake, 293T” value is listed as “high”. In assay [1], the “Prolif, A549” value is reported as “high”.

For `COc1ccc(CC[C@H]2OC(=O)[C@@H]3CCCCN3C(=O)C(=O)C(C)(C)COC(=O)C=CCCN(C)C(=O)[C@@H](Cc3ccccc3)NC(=O)CN(C)C(=O)[C@@H](Cc3ccccc3)NC(=O)[C@H](Cc3ccc(OC(=O)N4CCOCC4)cc3)N(C)C(=O)CCC(=O)Nc3cccc2c3)cc1OC` [Compound 869], in the assay on H929, the “Prolif. H929” value was “low” and the “Rel. Prolif., NCI-H929” value is given as “low”.

Take `CCCC[C@H]1C(=O)N[C@@H](Cc2ccc3ccccc3c2)C(=O)N(C)[C@@H](COC(C)(C)C)C(=O)NCC(=O)N(C)CCC=CC(=O)OCC(C)(C)C(=O)C(=O)N2CCCC[C@H]2C(=O)O[C@H](CCc2ccc(OC)c(O)c2)c2cccc(c2)OCC(=O)N1C` [Compound 1564]: the “Rel. Uptake, 293T” value in assay [2] is reported as “high”. Moreover, the “Prolif, A549” value in assay [1] is “high”.

Consider `COc1ccc(CC[C@H]2OC(=O)[C@@H]3CCCCN3C(=O)C(=O)C(C)(C)COC(=O)C=CCCN(C)C(=O)[C@@H](Cc3ccccc3)NC(=O)CN(C)C(=O)[C@@H](Cc3ccccc3)NC(=O)[C@H](Cc3ccc(OC(=O)N4CCOCC4)cc3)N(C)C(=O)COc3cccc2c3F)cc1OC` [Compound 867], for which, in the assay on H929, the “Prolif. H929” value is “low” and the “Rel. Prolif., NCI-H929” value was “low”.

`CCCC[C@H]1C(=O)N[C@@H](Cc2ccc3ccccc3c2)C(=O)N(C)[C@@H](COC(C)(C)C)C(=O)NCC(=O)N(C)CCC=CC(=O)OCC(C)(C)C(=O)C(=O)N2CCCC[C@H]2C(=O)O[C@H](CCc2ccc(OC)c(OC)c2O)c2cccc(c2)OCC(=O)N1C` [Compound 565]: in assay [1], the “Prolif, A549” value is “medium” and the “Rel. Prolif., A549” value is reported as “medium”.

With `CCCC[C@H]1C(=O)N[C@@H](Cc2ccc3ccccc3c2)C(=O)N(C)[C@@H](COC(C)(C)C)C(=O)NCC(=O)N(C)CCC=CC(=O)OCC(C)(C)C(=O)C(=O)N2CCCC[C@H]2C(=O)O[C@H](CCc2ccc(OC)c(OC)c2F)c2cccc(c2)OCC(=O)N1C` [Compound 570], in assay [1], the “Prolif, A549” value is recorded as “medium” and the “Rel. Prolif., A549” value is given as “medium”.

On to `CCCC[C@H]1C(=O)N[C@@H](Cc2ccc3ccccc3c2)C(=O)N(C)[C@@H](COC(C)(C)C)C(=O)NCC(=O)N(C)CCC=CC(=O)OCC(C)(C)C(=O)C(=O)N2CCCC[C@H]2C(=O)O[C@H](CCc2ccc(OC)c(OC)c2)c2cc(ccc2F)OCC(=O)N1C` [Compound 573], for which, in assay [1], the “Prolif, A549” value is “low” and the “Rel. Prolif., A549” value is listed as “low”.

For `CCCC[C@H]1C(=O)N[C@@H](Cc2ccc3ccccc3c2)C(=O)N(C)[C@@H](COC(C)(C)C)C(=O)NCC(=O)N(C)CCC=CC(=O)OCC(C)(C)C(=O)C(=O)N2CCN(C(=O)OCC3c4ccccc4-c4ccccc43)C[C@H]2C(=O)O[C@H](CCc2ccc(OC)c(OC)c2)c2cccc(c2)OCC(=O)N1C` [Compound 571], in assay [1], the “Prolif, A549” value is recorded as “low” and the “Rel. Prolif., A549” value is recorded as “low”.

On to `CCCC[C@H]1C(=O)N[C@@H](Cc2ccc3ccccc3c2)C(=O)N(C)[C@@H](COC(C)(C)C)C(=O)NCC(=O)N(C)CCC=CC(=O)OCC(C)(C)C(=O)C(=O)N2CCCC[C@H]2C(=O)O[C@H](CCc2cc(OC)c(OC)cc2O)c2cccc(c2)OCC(=O)N1C` [Compound 567], for which, in assay [1], the “Prolif, A549” value is recorded as “medium” and the “Rel. Prolif., A549” value is reported as “medium”.

On to `CCCC[C@H]1C(=O)N[C@@H](Cc2ccc3ccccc3c2)C(=O)N(C)[C@@H](COC(C)(C)C)C(=O)NCC(=O)N(C)CCC=CC(=O)OCC(C)(C)C(=O)C(=O)N2CCCC[C@H]2C(=O)O[C@H](CCc2cc(OC)cc(OC)c2OC)c2cccc(c2)OCC(=O)N1C` [Compound 563], for which, in assay [1], the “Prolif, A549” value is given as “low” and the “Rel. Prolif., A549” value is “low”.

Turning to `COc1ccc(CC[C@H]2OC(=O)[C@@H]3CCCCN3C(=O)C(=O)C(C)(C)COC(=O)C=CCCN(C)C(=O)[C@@H](Cc3ccccc3)NC(=O)CN(C)C(=O)[C@@H](Cc3ccccc3)NC(=O)[C@H](Cc3ccc(OC(=O)N4CCOCC4)cc3)N(C)C(=O)COc3cc(F)cc2c3)cc1OC` [Compound 868], in the assay with H929, the “Prolif. H929” value is “low” and the “Rel. Prolif., NCI-H929” value was “low”.

For `CCCC[C@H]1C(=O)N[C@@H](Cc2ccc3ccccc3c2)C(=O)N(C)[C@@H](COC(C)(C)C)C(=O)NCC(=O)N(C)CCC=CC(=O)OCC(C)(C)C(=O)C(=O)N2CCCC[C@H]2C(=O)O[C@H](CCc2ccc(OC)c(OC)c2OC)c2cccc(c2)OCC(=O)N1C` [Compound 561], in assay [1], the “Prolif, A549” value is “medium” and the “Rel. Prolif., A549” value is “medium”.

In the case of `CCCC[C@H]1C(=O)N[C@@H](Cc2ccc3ccccc3c2)C(=O)N(C)[C@@H](COC(C)(C)C)C(=O)NCC(=O)N(C)CCC=CC(=O)OCC(C)(C)C(=O)C(=O)N2CCCC[C@H]2C(=O)O[C@H](CCc2c(OC)ccc(OC)c2OC)c2cccc(c2)OCC(=O)N1C` [Compound 564], in assay [1], the “Prolif, A549” value was “low” and the “Rel. Prolif., A549” value is “low”.

Take `CCCC[C@H]1C(=O)N[C@@H](Cc2ccc3ccccc3c2)C(=O)N(C)[C@@H](COC(C)(C)C)C(=O)NCC(=O)N(C)CCC=CC(=O)OCC(C)(C)C(=O)C(=O)N2CCCC[C@H]2C(=O)O[C@H](CCc2cc(F)c(OC)c(OC)c2)c2cccc(c2)OCC(=O)N1C` [Compound 568]: in assay [1], the “Prolif, A549” value is given as “medium” and the “Rel. Prolif., A549” value is reported as “medium”.

Take `CCCC[C@H]1C(=O)N[C@@H](Cc2ccc3ccccc3c2)C(=O)N(C)[C@@H](COC(C)(C)C)C(=O)NCC(=O)N(C)CCC=CC(=O)OCC(C)(C)C(=O)C(=O)N2CCCC[C@H]2C(=O)O[C@H](CCc2cc(OC)c(OC)cc2F)c2cccc(c2)OCC(=O)N1C` [Compound 569]: in assay [1], the “Prolif, A549” value is reported as “medium” and the “Rel. Prolif., A549” value is listed as “medium”.

With `CCCC[C@H]1C(=O)N[C@@H](Cc2ccc3ccccc3c2)C(=O)N(C)[C@@H](COC(C)(C)C)C(=O)NCC(=O)N(C)CCC=CC(=O)OCC(C)(C)C(=O)C(=O)N2CCCC[C@H]2C(=O)O[C@H](CCc2cc(O)c(OC)c(OC)c2)c2cccc(c2)OCC(=O)N1C` [Compound 566], in assay [1], the “Prolif, A549” value is given as “medium” and the “Rel. Prolif., A549” value is recorded as “medium”.

For the compound `CCCC[C@H]1C(=O)N[C@@H](Cc2ccc3ccccc3c2)C(=O)N(C)[C@@H](COC(C)(C)C)C(=O)NCC(=O)N(C)CCC=CC(=O)OCC(C)(C)C(=O)C(=O)N2CCCC[C@H]2C(=O)O[C@H](CCc2ccc(OC)c(OC)c2)c2cncc(c2)OCC(=O)N1C` [Compound 1565], the “Rel. Uptake, 293T” value in assay [2] is reported as “low”. Further, in assay [1], the “Prolif, A549” value is listed as “low”.

For `CCCC[C@H]1C(=O)N[C@@H](Cc2ccc3ccccc3c2)C(=O)N(C)[C@@H](COC(C)(C)C)C(=O)NCC(=O)N(C)CCC=CC(=O)OCC(C)(C)C(=O)C(=O)N2CCCC[C@H]2C(=O)O[C@H](CCc2cc(OC)c(OC)c(OC)c2)c2cccc(c2)OCC(=O)N1C` [Compound 560], in assay [1], the “Prolif, A549” value was “medium” and the “Rel. Prolif., A549” value is reported as “medium”.

Consider `CC[C@H](C)[C@H]1C(=O)NCC(=O)N(C)CC/C=C\C(=O)OCC(C)(C)C(=O)C(=O)N2CCCC[C@H]2C(=O)O[C@H](CCc2ccc(OC)c(OC)c2)c2cccc(c2)NC(=O)CCC(=O)N(C)[C@@H](CC(C)C)C(=O)N[C@H](Cc2ccccc2)C(=O)N1C` [Compound 1592], for which, in assay [2], the “Rel. Uptake, 293T” value is given as “Low (“Low” indicates a response greater than 0.6 times the activity relative to DMSO)”. In assay [1] (Homo sapiens, Table 17), the IC50 is less than 300 nM.

For `CCCC[C@H]1C(=O)N[C@@H](Cc2ccc3ccccc3c2)C(=O)N(C)[C@@H](COC(C)(C)C)C(=O)NCC(=O)N(C)CCC=CC(=O)OCC(C)(C)C(=O)C(=O)N2CCCC[C@H]2C(=O)O[C@H](CCc2cc(OC)c(OC)cc2OC)c2cccc(c2)OCC(=O)N1C` [Compound 562], in assay [1], the “Prolif, A549” value was “medium” and the “Rel. Prolif., A549” value is recorded as “medium”.
